The text below walks through data of patent US20240299385A1 (ReWind Therapeutics NV, priority 2021, published 2024).

One may read the IC50 as the concentration that gives 50% inhibition.

Bounds are passed on as bounds.

The test system of one test is NMDA receptor.
Experiment: not given
The conditions noted are these: selectivity, background statement; cited from earlier work.
As for `O=C(O)CCc1c(C(=O)O)[nH]c2cc(Cl)cc(Cl)c12` [MDL29,951, MDL 29,951], the “fold more potent as an NMDA receptor antagonist than as a GPR17 activator” value is “approximately ten”.

The target of another test is T1, human GPR17 receptor (Homo sapiens, UniProt Q13304).
T1 construct: host or cells: HEK-293
T1 sequence (Q13304 whole entry): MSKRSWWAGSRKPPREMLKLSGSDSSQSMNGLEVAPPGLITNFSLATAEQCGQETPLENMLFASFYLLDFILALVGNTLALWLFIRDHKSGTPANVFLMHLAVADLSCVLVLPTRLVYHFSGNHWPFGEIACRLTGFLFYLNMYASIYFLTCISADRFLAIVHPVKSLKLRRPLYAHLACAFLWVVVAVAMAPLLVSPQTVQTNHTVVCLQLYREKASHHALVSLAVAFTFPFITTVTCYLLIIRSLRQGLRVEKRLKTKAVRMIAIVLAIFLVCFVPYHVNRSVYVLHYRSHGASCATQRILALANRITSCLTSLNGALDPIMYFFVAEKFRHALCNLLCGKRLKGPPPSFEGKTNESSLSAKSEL
The test is described as follows: Calcium mobilization functional assay (Fluo-8, FLIPR TETRA) in HEK-293 hGPR17 (Gα-q assay). The note with it: antagonism of MDL29,951 (~EC80) induced Ca2+ signal; cell line (HEK-293 hGPR17 or HEK-293 Suchi5 hGPR17) not given. The test is classed as cell-based. The method in brief: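 Fluo-8-loaded HEK-293 hGPR17 cells (60 min dye loading, room temperature) were preincubated with compound for twenty minutes, then challenged with agonist MDL29,951 at ~EC80, 500 nM. Intracellular calcium release via Gα-q was recorded as FLIPR fluorescence for a further 2 minutes; compounds tested in duplicate.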
As for `COc1csc(-c2cc(S(=O)(=O)Nc3cc(F)c(OC(F)F)cc3F)c[nH]2)c1` [Cpd 660, N-[4-(difluoromethoxy)-2,5-difluorophenyl]-5-(4-methoxythiophen-2-yl)-1H-pyrrole-3-sulfonamide], the IC50 was less than 500 nM.

For `COc1csc(-c2cc(S(=O)(=O)Nc3cc(F)c(C#N)cc3F)c[nH]2)n1` [Cpd 661, N-(4-cyano-2,5-difluorophenyl)-5-(4-methoxy-1,3-thiazol-2-yl)-1H-pyrrole-3-sulfonamide], the IC50 was less than 500 nM. Still for that read-out and setting: then `N#Cc1ccc(F)c(-c2cc(S(=O)(=O)Nc3nc(F)c(OCCF)cc3F)c[nH]2)c1` [Cpd 662, 5-(5-cyano-2-fluorophenyl)-N-[3,6-difluoro-5-(2-fluoroethoxy)pyridin-2-yl]-1H-pyrrole-3-sulfonamide], with less than 500 nM; and `N#Cc1cc(F)c(NS(=O)(=O)c2c[nH]c(-c3cccc4c(C(F)(F)F)coc34)c2)cc1F` [Cpd 663, N-(4-cyano-2,5-difluorophenyl)-5-[3-(trifluoromethyl)-1-benzofuran-7-yl]-1H-pyrrole-3-sulfonamide], with 500 to 5000 nM; and `O=S(=O)(Nc1cc(F)c(OC(F)F)cc1F)c1c[nH]c(-c2csc(Cl)c2)c1` [Cpd 664, 5-(5-chlorothiophen-3-yl)-N-[4-(difluoromethoxy)-2,5-difluorophenyl]-1H-pyrrole-3-sulfonamide], with 500 to 5000 nM. As to `O=S(=O)(Nc1nc(F)c(OCCF)cc1F)c1c[nH]c(-c2nccs2)c1` [Cpd 665, N-[3,6-difluoro-5-(2-fluoroethoxy)pyridin-2-yl]-5-(1,3-thiazol-2-yl)-1H-pyrrole-3-sulfonamide], the IC50 was less than 500 nM. Turning to `O=S(=O)(Nc1cc(F)c(OC(F)F)cc1F)c1c[nH]c(-c2cc(Cl)cs2)c1` [Cpd 666, 5-(4-chlorothiophen-2-yl)-N-[4-(difluoromethoxy)-2,5-difluorophenyl]-1H-pyrrole-3-sulfonamide], the 50% inhibitory concentration (IC50) is less than 500 nM.

As to `N#Cc1cc(F)c(NS(=O)(=O)c2c[nH]c(-c3ncc(C(F)(F)F)s3)c2)cc1F` [Cpd 667, N-(4-cyano-2,5-difluorophenyl)-5-[5-(trifluoromethyl)-1,3-thiazol-2-yl]-1H-pyrrole-3-sulfonamide], the IC50 was 5000 to 50000 nM. As for `O=S(=O)(Nc1cc(F)c(OC(F)F)cc1F)c1c[nH]c(-c2nc3ccccc3s2)c1` [Cpd 668, 5-(1,3-benzothiazol-2-yl)-N-[4-(difluoromethoxy)-2,5-difluorophenyl]-1H-pyrrole-3-sulfonamide], the half-inhibitory concentration (IC50) fell in the range of 500 to 5000 nM.

In the case of `O=S(=O)(Nc1cc(F)c(C(F)(F)F)cc1F)c1c[nH]c(-c2ccoc2Cl)c1` [Cpd 669, 5-(2-chlorofuran-3-yl)-N-[2,5-difluoro-4-(trifluoromethyl)phenyl]-1H-pyrrole-3-sulfonamide], the IC50 is less than 500 nM.
